Laboratory results reported in patent publication US4737518A, “Lipid derivatives, their production and use” (Takeda Chemical Industries, Ltd., priority 1984, dated 1988).

Legend:
[1] = test system: rabbit platelet aggregation by PAF; assay: Inhibitory activity on rabbit platelet aggregation by PAF; type: cell-based; conditions: Oryctolagus cuniculus, PAF 1×10^-8 M, read-out: rate of inhibition of rabbit platelet aggregation by PAF; for inhibition at 30 µM: test drug 3 × 10^-5 M; for inhibition at 3 µM: test drug 3 × 10^-6 M; for inhibition at 0.3 µM: test drug 3 × 10^-7 M; for inhibition at 0.03 µM: test drug 3 × 10^-8 M
[2] = test system: HL-60 cells; assay: Effect on inducing differentiation of HL-60 cells (NBT-positive cells); type: cell-based, human; conditions: 6 days; for Emax: Homo sapiens, HL-60, 144 h, at optimal conc., NBT-positive relative to live cells, read-out: Maximum differentiation extent: Differentiation
Experimental: Assay of the effects on inducing differentiation of HL-60 cells (human promyelocytic leukemia cells) and Neuro-2a cells (mouse neuroblastoma cells): RPMI-1640 medium (Flow Laboratories, Inc.) supplemented with 20% fetal calf serum (M.A. […] The culture was incubated at 37° C. in a 5% CO2 incubator for 6 days. […] The reaction was allowed to proceed at 37° C. for 20 minutes. The reaction was stopped by cooling with ice, and the cells were washed by means of centrifugation, followed by collecting 3-5×10^4 cells and by subjecting to centrifugation using Cytospin centrifuge to prepare a cell smear, which was fixed with methanol and stained with Kernechtrot solution. On each cell smear, the percentage of NBT-positive cells relative to live cells, […] by examination of a minimum of 200 cells, was expressed as the differentiation extent.

[3] = test system: PAF-induced hypotension; assay: Inhibitory activity against PAF-induced hypotension in rats; type: in vivo, rat (male Spraque-Dawley); conditions: PAF 0.3 μg/kg i.v.
Experimental: Inhibitory activity against PAF-induced hypotension in rats
Male Spraque-Dawley rats, with a body weight of about 400 g, were used under pentobarbital sodium (50 mg/kg, intravenous administration) anesthesia. A cannula was inserted into the femoral artery and secured in position for measurement of blood pressure and another cannula into the femoral vein for administration of a solution of the drug. The blood pressure was measured via a pressure transducer and recorded on a polygraph. First, 0.3 μg/kg of PAF was administered intravenously and the hypotensive response was recorded.
The inhibitory activity against PAF-induced hypotension was estimated from the rate of PAF-induced hypotensive response (Δ mmHg) after the drug administration to hypotensive response (Δ mmHg) by PAF before the drug administration.

Row | Structure (SMILES) | inhibition at 30 µM [1] [%] | inhibition at 3 µM [1] [%] | inhibition at 0.3 µM [1] [%] | other results
1 | CCCCCCCCCCCCCCCCCCOCC(COC(=O)NCC[n+]1ccsc1)OCc1ccccc1 (stereo not shown) [Example 8, 2-O-Benzyl-1-O-octadecyl-3-O-(2'-thiazolioethyl)carbamoylglycerol bromide] | 100 |  |  | 
2 | CCCCCCCCCCCCCCCCCCNC(=O)OCC(COC(=O)NCC[N+](C)(C)C)OC (stereo not shown) [Example 10, 2-O-Methyl-1-O-octadecylcarbamoyl-3-O-(2'-trimethylammonioethyl)carbamoylglycerol iodide] | 82 |  |  | 
3 | CCCCCCCCCCCCCCCCCCNC(=O)OCC(COC(=O)NCC[n+]1ccsc1)OC (stereo not shown) [Example 14, 2-O-Methyl-1-O-octadecylcarbamoyl-3-O-(2'-thiazolioethyl)carbamoylglycerol bromide] | 100 | 52 |  | 
4 | CCCCCCCCCCCCCCCCCCOCC(COC(=O)NCC[N+](C)(C)C)NC(C)=O (stereo not shown) [Example 19, 1-Octadecyloxy-2-acetamido-3-(2'-trimethylammonioethyl)carbamoyloxypropane iodide] | 72 |  |  | 
5 | CCCCCCCCCCCCCCCCCCOCC(COC(=O)N(CC[N+](C)(C)C)C(C)=O)NC(C)=O (stereo not shown) [Example 20, 1-Octadecyloxy-2-acetamido-3-[N-acetyl-N-(2'-trimethylammonioethyl)]carbamoyloxypropane iodide] | 100 | 100 |  | 
6 | CCCCCCCCCCCCCCCCCCNC(=O)OCC(COC(=O)N(CC[N+](C)(C)C)C(=O)OC)OC (stereo not shown) [Example 56, 2-O-Methyl-1-O-[N-methoxycarbonyl-N-(2'-trimethylammonioethyl)]carbamoyl-3-O-octadecylcarbamoylglycerol iodide] | 100 | 64 |  | 
7 | CCCCCCCCCCCCCCCCCCNC(=O)OCC(COC(=O)N(CC[N+](C)(C)C)C(=O)N(C)C)OC (stereo not shown) [Example 62, 1-O-[N-Dimethylcarbamoyl-N-(2'-trimethylammonioethyl)]carbamoyl-2-O-methyl-3-O-octadecylcarbamoylglycerol iodide] | 100 | 34 |  | 
8 | CCCCCCCCCCCCCCCCCCOCC(Cn1ccc(=O)n(CC[N+](C)(C)C)c1=O)OC(C)=O (stereo not shown) [Example 102, 1-(2-Acetyloxy-3-octadecyloxy)propyl-3-(2-trimethylammonioethyl)urasil chloride] | 100 | 100 |  | inhibition at 1 µM ([1]; test drug 1 × 10^-6 M): 72%
9 | CCCCCCCCCCCCCCCCCCNC(=O)OCC(CNC(=O)N(Cc1cccc[n+]1C)C(C)=O)OC.[Cl-] (stereo not shown) [Example 106, 1-Methyl-2-[N-acetyl-N'-(3-octadecylcarbamoyloxy-2-methoxypropyl)ureido]methylpyridinium chloride] |  |  |  | Maximum differentiation extent: Optimal conc. [2]: 1.88 µg/mL; Emax [2]: 78%
10 | CCCCCCCCCCCCCCCCCCNC(=O)OCC(CN1CC(=O)N(CC[n+]2ccsc2)C1=O)OC (stereo not shown) [Example 110, 1-[(2-methoxy-3-octadecylcarbamoyloxy)propyl]-3-(2-thiazolioethyl)hydantoinchloride] | 100 | 100 | 34 | 
11 | CCCCCCCCCCCCCCCCCCNC(=O)OCC(COC(=O)N(Cc1cccc[n+]1C)C(C)=O)OCC (stereo not shown) [Example 116] | 100 | 100 | 100 | Restoration rate ([3]; 1 mg/kg i.v., after 5 min): 100%; Restoration rate ([3]; 1 mg/kg i.v., after 60 min): 77%
12 | CCCCCCCCCCCCCCCCCCNC(=O)OCC(COC(=O)N(Cc1cccc[n+]1CC)C(C)=O)OCC (stereo not shown) [Example 117] |  | 100 | 100 | Restoration rate ([3]; 1 mg/kg i.v., after 5 min): 100%; Restoration rate ([3]; 1 mg/kg i.v., after 60 min): 100%
13 | CCCCCCCCCCCCCCCCCCNC(=O)OCC(Cn1ccc(=O)n(CC[N+](C)(C)C)c1=O)OC (stereo not shown) [Example 136, N-[2-{1-(3-Octadecylcarbamoyloxy-2-methoxypropyl)uracil-3-yl}ethyl]-N,N,N-trimethylammonium chloride] | 100 | 100 | 11 | 
14 | CCCCCCCCCCCCCCCCCCNC(=O)OCC(COC(=O)NCc1scc[n+]1C)OC (stereo not shown) [Example 140, 2-[N-(3-Octadecylcarbamoyloxy-2-methoxypropoxycarbonyl)amino]methyl-3-methylthiazolium iodide] | 100 | 100 | 100 | inhibition at 0.03 µM [1]: 18%
15 | CCCCCCCCCCCCCCCCCCNC(=O)OCC(COC(=O)N(Cc1scc[n+]1C)C(C)=O)OC.[I-] (stereo not shown) [Example 142, 2-[N-Acetyl-N-(3-octadecylcarbamoyloxy-2-methoxypropoxycarbonyl)amino]methyl-3-methylthiazolium iodide] | 100 | 100 | 100 | Restoration rate ([3]; 1 mg/kg i.v., after 5 min): 100%; Restoration rate ([3]; 1 mg/kg i.v., after 60 min): 100%; inhibition at 0.03 µM [1]: 25%
16 | CCCCCCCCCCCCCCCCCCNC(=O)OCC(COC(=O)N(Cc1scc[n+]1CC)C(C)=O)OC.[I-] (stereo not shown) [Example 143, 2-[N-Acetyl-N-(3-octadecylcarbamoyloxy-2-methoxypropoxycarbonyl)amino]methyl-3-ethylthiazolium iodide] |  | 100 | 100 | Restoration rate ([3]; 1 mg/kg i.v., after 5 min): 100%; Restoration rate ([3]; 1 mg/kg i.v., after 60 min): 100%
17 | CCCCCCCCCCCCCCCCCCNC(=O)OCC(COC(=O)N(Cc1scc[n+]1CCC)C(C)=O)OC (stereo not shown) [Example 144, 2-[N-Acetyl-N-(3-octadecylcarbamoyloxy-2-methoxypropoxycarbonyl)amino]methyl-3-propylthiazolium iodide] |  | 100 | 100 | inhibition at 0.03 µM [1]: 9%
18 | CCCCCCCCCCCCCCCCCCNC(=O)OCC(COC(=O)N(Cc1scc[n+]1CCCC)C(C)=O)OC (stereo not shown) [Example 145, 2-[N-Acetyl-N-(3-octadecylcarbamoyloxy-2-methoxypropoxycarbonyl)amino]methyl-3-butylthiazolium iodide] |  | 100 | 100 | 
19 | CCCCCCCCCCCCCCCCCCNC(=O)OCC(COC(=O)N(Cc1csc[n+]1C)C(C)=O)OC (stereo not shown) [Example 148, 4-[N-Acetyl-N-(3-octadecylcarbamoyloxy-2-methoxypropoxycarbonyl)amino]methyl-3-methylthiazolium iodide] |  | 100 | 42 | 
20 | CCCCCCCCCCCCCCCCCCNC(=O)OCC(COC(=O)N(Cc1csc[n+]1CC)C(C)=O)OC.[I-] (stereo not shown) [Example 149, 4-[N-Acetyl-N-(3-octadecylcarbamoyloxy-2-methoxypropoxycarbonyl)amino]methyl-3-ethylthiazolium iodide] |  | 100 | 100 | Restoration rate ([3]; 0.1 mg/kg i.v., after 5 min): 100%; Restoration rate ([3]; 0.1 mg/kg i.v., after 60 min): 39%; Restoration rate ([3]; 1 mg/kg i.v., after 5 min): 100%; Restoration rate ([3]; 1 mg/kg i.v., after 60 min): 100%; inhibition at 0.03 µM [1]: 78%
21 | CCCCCCCCCCCCCCCCCCNC(=O)OCC(COC(=O)N(C(C)=O)C1CCC[N+](C)(CC)C1)OC (stereo not shown) [Example 161, 3-[N-Acetyl-N-(3-octadecylcarbamoyloxy-2-methoxypropoxycarbonyl)]amino-1-ethyl-1-methylpiperidinium chloride] | 100 | 100 | 6 | 
22 | CCCCCCCCCCCCCCCCCCNC(=O)OCC(COC(=O)N(Cc1cccc[n+]1CCC)C(C)=O)OC (stereo not shown) [Example 173, 3-[N-Acetyl-N-(N'-propylpyridinio-2-yl)methyl]carbamoyl-1-octadecylcarbamoyl-2-methylglycerol chloride] | 100 | 100 | 100 | 
23 | C=CC[n+]1ccccc1CN(C(C)=O)C(=O)OCC(COC(=O)NCCCCCCCCCCCCCCCCCC)OC (stereo not shown) [Example 174, 3-[N-Acetyl-N-(N'-allylpyridinio-2-yl)methyl]carbamoyl-1-octadecylcarbamoyl-2-methylglycerol chloride] | 100 | 100 | 100 | 
24 | CCCCCCCCCCCCCCCCCCNC(=O)OCC(COC(=O)N(Cc1cccc[n+]1CCCC)C(C)=O)OC (stereo not shown) [Example 177, 3-[N-Acetyl-N-(N'-butylpyridinio-2-yl)methyl]carbamoyl-1-octadecylcarbamoyl-2-methylglycerol chloride] |  |  |  | Maximum differentiation extent: Optimal conc. [2]: 0.48 µg/mL; Emax [2]: 91%
